17 compounds from PMC4292808 (Journal of Medicinal Chemistry, 2014) can be followed below.

A short description of series [1]: In vivo pharmacokinetic studies. The conditions noted are these: male, Swiss albino, mouse, plasma, iv, 1 mg/kg.
In series [2] the test system is phosphorylation of IKKα/β and degradation of IκB-α in L929 cells. Nature of the series: TNFα-induced NF-κB signaling, Western blot. The format is cell-based, mouse. A general note: Immunoblotting shows a protein as a band on a membrane.
The subject of series [3] is BCR-ABL-dependent Ba/F3 cells. The series is described as follows: Ba/F3 cell proliferation assay. The format is cell-based. The conditions noted are these: Mus musculus, BaF3, read-out: cell growth inhibition.
For another series, the target named is p38α (Homo sapiens, UniProt Q16539). Nature of the series: SelectScreen enzymatic assay. It counts as biochemical. The conditions noted are these: KiNativ and enzymatic assays, in words.
Sequence of p38α (Q16539 whole entry): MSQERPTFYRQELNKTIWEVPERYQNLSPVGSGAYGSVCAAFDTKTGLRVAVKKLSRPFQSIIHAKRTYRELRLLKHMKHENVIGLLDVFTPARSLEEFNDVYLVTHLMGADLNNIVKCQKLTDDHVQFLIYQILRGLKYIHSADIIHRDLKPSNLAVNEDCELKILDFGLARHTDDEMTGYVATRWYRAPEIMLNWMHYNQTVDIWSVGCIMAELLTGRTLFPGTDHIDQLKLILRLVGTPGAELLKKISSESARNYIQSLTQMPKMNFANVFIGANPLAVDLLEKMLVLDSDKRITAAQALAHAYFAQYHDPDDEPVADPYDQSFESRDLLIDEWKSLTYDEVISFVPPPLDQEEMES
The test system of series [4] is phosphorylation of p38 MAPK and SMAD2 in WT MEFs. The format is cell-based, mouse. Conditions: WT and TAK1-deficient MEFs.
Series [5] concerns phosphorylation of p38 MAPK in TAK1-deficient MEFs. Nature of the series: IL-1 and TGFβ-induced signaling in TAK1-deficient MEFs, Western blot. It counts as cell-based, mouse. Conditions: 500 nM.
The test system of series [6] is signaling in Gen2.2 cells. The series is described as follows: CL097. It counts as cell-based. Conditions: human Gen2.2 cells, 1 μM, 1 h pretreatment.
Another series addresses T1, MAP4K2 (Homo sapiens, UniProt Q12851).
T1 sequence (Q12851 1-820): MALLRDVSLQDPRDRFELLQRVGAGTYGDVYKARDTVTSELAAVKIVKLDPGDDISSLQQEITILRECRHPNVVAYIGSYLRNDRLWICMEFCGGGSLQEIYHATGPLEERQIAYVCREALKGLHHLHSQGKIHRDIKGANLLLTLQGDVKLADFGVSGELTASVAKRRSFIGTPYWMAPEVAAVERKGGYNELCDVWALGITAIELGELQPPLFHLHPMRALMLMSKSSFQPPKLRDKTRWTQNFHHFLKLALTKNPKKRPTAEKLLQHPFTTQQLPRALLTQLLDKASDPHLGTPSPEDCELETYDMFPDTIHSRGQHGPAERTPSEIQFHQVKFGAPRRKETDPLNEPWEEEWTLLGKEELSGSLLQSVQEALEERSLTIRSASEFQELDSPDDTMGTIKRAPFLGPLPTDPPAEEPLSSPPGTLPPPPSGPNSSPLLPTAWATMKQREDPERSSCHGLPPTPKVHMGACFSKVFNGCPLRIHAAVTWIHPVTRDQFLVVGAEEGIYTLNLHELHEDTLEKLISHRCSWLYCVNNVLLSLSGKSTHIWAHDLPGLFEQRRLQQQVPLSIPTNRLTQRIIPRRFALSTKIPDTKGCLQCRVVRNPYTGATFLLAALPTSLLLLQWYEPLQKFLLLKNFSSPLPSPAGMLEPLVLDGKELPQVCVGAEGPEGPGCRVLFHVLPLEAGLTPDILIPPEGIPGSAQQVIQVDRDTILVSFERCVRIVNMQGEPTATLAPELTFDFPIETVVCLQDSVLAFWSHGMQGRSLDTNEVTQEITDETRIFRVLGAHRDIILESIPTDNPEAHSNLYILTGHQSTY
The series is described as follows: KiNativ HUH7 lysate. The format is binding. The conditions noted are these: in words.

For series [7], the target named is T2, TAK1 (Homo sapiens, UniProt O43318).
T2 sequence (O43318 1-606): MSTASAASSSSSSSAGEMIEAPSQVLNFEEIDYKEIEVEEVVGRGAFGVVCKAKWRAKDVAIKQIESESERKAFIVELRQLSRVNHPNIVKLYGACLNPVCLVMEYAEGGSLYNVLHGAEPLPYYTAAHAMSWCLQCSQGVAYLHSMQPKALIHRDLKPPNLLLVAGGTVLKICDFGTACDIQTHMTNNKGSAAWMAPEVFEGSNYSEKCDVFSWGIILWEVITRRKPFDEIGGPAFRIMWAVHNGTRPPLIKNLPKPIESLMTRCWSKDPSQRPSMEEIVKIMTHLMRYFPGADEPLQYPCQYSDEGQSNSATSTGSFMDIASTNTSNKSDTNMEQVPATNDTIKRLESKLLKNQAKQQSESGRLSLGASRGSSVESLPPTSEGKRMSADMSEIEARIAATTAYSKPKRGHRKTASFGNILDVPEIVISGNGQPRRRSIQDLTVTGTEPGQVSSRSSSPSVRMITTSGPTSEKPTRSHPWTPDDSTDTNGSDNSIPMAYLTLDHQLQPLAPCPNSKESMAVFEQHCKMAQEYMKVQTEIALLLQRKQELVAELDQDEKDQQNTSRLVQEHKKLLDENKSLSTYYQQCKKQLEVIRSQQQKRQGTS
Nature of the series: KiNativ HUH7 lysate. The format is binding. Conditions: in words.

The test system of series [8] is phosphorylation of p105, p38 and JNK1/2 in MEFs. Nature of the series: IL-1α-induced signaling, Western blot. It counts as cell-based, mouse. Conditions: MEFs stimulated with IL-1α.
The target of series [9] is T3, TAK1 (Homo sapiens, UniProt O43318).
T3 sequence (O43318 1-303 limits assumed): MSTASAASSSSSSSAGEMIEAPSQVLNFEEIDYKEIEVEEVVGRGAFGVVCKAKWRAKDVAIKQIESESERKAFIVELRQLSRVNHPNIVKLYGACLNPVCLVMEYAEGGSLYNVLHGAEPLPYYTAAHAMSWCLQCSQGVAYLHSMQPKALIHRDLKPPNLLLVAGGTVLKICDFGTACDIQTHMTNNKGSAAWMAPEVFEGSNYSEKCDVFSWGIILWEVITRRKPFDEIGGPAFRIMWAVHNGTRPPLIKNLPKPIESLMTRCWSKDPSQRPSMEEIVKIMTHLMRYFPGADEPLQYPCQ
Nature of the series: biochemical.

The subject of series [10] is phosphorylation of p105, p38 and JNK1/2 in 293 IL-1R cells. Nature of the series: IL-1α-induced signaling, Western blot. It counts as cell-based. Conditions: human 293 IL-1R cells stimulated with IL-1α.
The mark [11] stands for this setting: 100 nM, 30 min pretreatment, TNFα 5 min, Western blot.

SMILES strings stand for the structures. A value given as a limit tells only on which side of the number the result lay.

A word on the clearance: it is the rate of elimination divided by the concentration. Regarding `CCN1CCN(Cc2ccc(NC(=O)c3ccc(C)c(Oc4ncnc5[nH]c(C)cc45)c3)cc2C(F)(F)F)CC1` [Compound 5], the clearance at 24 h in [1] was found to be 26.5 mL/min/kg.

In the case of `CNC(=O)c1ccc(C)c(-n2c(C)cc(OCc3ccc(F)cc3F)c(Br)c2=O)c1` [Compound 39, PH-797804, reference compound], the “effect on TNFα-induced phosphorylation of IKKα/β and degradation of IκB-α” value (from here on “effect on TNFα-induced phosphorylation”) in series [2] (setting [11]) is recorded as “no effect”.

With `CCN1CCN(Cc2ccc(NC(=O)c3ccc(C)c(Oc4ncnc5[nH]ccc45)c3)cc2C(F)(F)F)CC1` [Compound 3], the clearance at 24 h in series [1] came out at 65.8 mL/min/kg.

By inhibition is commonly meant the relative decrease from the control value, in per cent. As to `CCN1CCN(Cc2ccc(NC(=O)c3ccc(C)c(/C=C/c4cnc5[nH]ccc5c4OC)c3)cc2C(F)(F)F)CC1` [Compound 2, (E)-N-(4-((4-Ethylpiperazin-1-yl)methyl)-3-(trifluoromethyl)phenyl)-3-(2-(4-methoxy-1H-pyrrolo[2,3-b]pyridin-5-yl)vinyl)-4-methylbenzamide], the inhibition at 0.01 µM in series [3] is over 50%. Further, in [2] (setting [11]), the “effect on TNFα-induced phosphorylation” value is given as “comparable cellular potency”.

As to `CCN1CCN(Cc2ccc(NC(=O)c3cccc(/C=C/c4cnc5[nH]ccc5c4OC)c3)cc2C(F)(F)F)CC1` [Compound 24], at p38α, the “activity against p38α” value is “inactive”.

`CNc1cc(Oc2cc(C(=O)Nc3cc(N4CCN(C)CC4)cc(C(F)(F)F)c3)ccc2C)ncn1` [Compound 17]: in series [4], the “IL-1 and TGFβ-induced p38 MAPK phosphorylation” value is listed as “dose-dependent inhibition”; the “TGFβ-induced phosphorylation of SMAD2” value is listed as “did not inhibit”. Besides, in [5], the “IL-1-induced phosphorylation of p38” value is listed as “complete inhibition”. Besides, the “effect on TNFα-induced phosphorylation” value in series [2] (setting [11]) is “no effect”. Moreover, the “effect on TNFα-induced phosphorylation” value in [2] (concentrations up to 1 μM) is listed as “not very effective”.

Consider `CCN1CCN(Cc2ccc(NC(=O)c3ccc(OC)c(Oc4ncnc5[nH]ccc45)c3)cc2C(F)(F)F)CC1` [S1], for which the CL097-induced signaling entry in series [6] was “only partially inhibited signaling”.

For the compound `CNc1cc(Oc2cc(C(=O)Nc3cc(-n4cnc(C)c4)cc(C(F)(F)F)c3)ccc2C)ncn1` [Compound 16], in series [4], the “IL-1 and TGFβ-induced p38 MAPK phosphorylation” value is reported as “dose-dependent inhibition”; the “TGFβ-induced phosphorylation of SMAD2” value is given as “did not inhibit”. Also, the CL097-induced signaling result in [6] is recorded as “not able to block”. Also, the “IL-1-induced phosphorylation of p38” value in series [5] is reported as “complete inhibition”. The “effect on TNFα-induced phosphorylation” value in series [2] (setting [11]) is recorded as “no effect”.

Turning to `CCN1CCN(Cc2ccc(NC(=O)c3ccc(C)c(Oc4ccnc(C(=O)NC)c4)c3)cc2C(F)(F)F)CC1` [Compound 9], the “activity against MAP4K2” value on MAP4K2 is “inactive”. Besides, the “activity against TAK1” value at TAK1 [7] was “inactive”.

As for `COc1cc(O)c2c(c1)/C=C/C[C@H](O)[C@H](O)C(=O)/C=C\C[C@H](C)OC2=O` [Compound 37, 5Z-7-oxozeaenol, reference compound], the “TGFβ-induced phosphorylation of SMAD2” value in series [4] was “inhibited phosphorylation of both p38 and SMAD2”.

As to `Cc1cn(-c2cc(NC(=O)c3ccc(C)c(Oc4ccnc5[nH]ccc45)c3)cc(C(F)(F)F)c2)cn1` [Compound 12], the “effect on TNFα-induced phosphorylation” value in series [2] (setting [11]) is on record as “no effect”.

For `CCN1CCN(Cc2ccc(NC(=O)c3cccc(Oc4ccnc5[nH]ccc45)c3)cc2C(F)(F)F)CC1` [Compound 10], the inhibition at 0.01 µM in series [3] is over 50%.

The IC50 is the point on the concentration scale where inhibition reaches its midpoint. Lower therefore signals greater potency in that assay. Broadly, the half-life is the time needed for the level to fall by half in the phase considered. For `CCN1CCN(Cc2ccc(NC(=O)c3ccc(C)c(Oc4ccnc5[nH]ccc45)c3)cc2C(F)(F)F)CC1` [Compound 1, 3-((1H-Pyrrolo[2,3-b]pyridin-4-yl)oxy)-N-(4-((4-ethylpiperazin-1-yl)methyl)-3-(trifluoromethyl)phenyl)-4-methylbenzamide], the “phosphorylation levels of p105, p38 and JNK1/2” value in series [8] and in series [10] was “inhibited in a dose-dependent manner” throughout. This compound also displayed a concentration for half-maximal inhibition (IC50) at TAK1 [9] of 15 nM. Besides, the CL097-induced signaling entry in series [6] is reported as “blocked signaling”. This compound showed a half-life in series [1] of 2 h. Also, the “effect on TNFα-induced phosphorylation” value in series [2] (setting [11]) is reported as “comparable cellular potency”.

In the case of `C[S+]([O-])c1ccc(-c2nc(-c3ccc(F)cc3)c(-c3ccncc3)[nH]2)cc1` (centres unmarked) [Compound 38, SB203580, reference compound], the “effect on TNFα-induced phosphorylation” value in [2] (setting [11]) is recorded as “no effect”.

For the compound `CCN1CCN(Cc2ccc(NC(=O)c3cccc(CCc4cnc5[nH]ccc5c4OC)c3)cc2C(F)(F)F)CC1` [Compound 23], the “activity against p38α” value on p38α is “inactive”.

Turning to `CCN1CCN(Cc2ccc(C(=O)Nc3ccc(C)c(Oc4ccnc5[nH]ccc45)c3)cc2C(F)(F)F)CC1` [Compound 11], in [2] (setting [11]), the “effect on TNFα-induced phosphorylation” value is given as “no effect”.

In turn, `CCN1CCN(Cc2ccc(NC(=O)c3ccc(C)c(Oc4ncnc5[nH]ncc45)c3)cc2C(F)(F)F)CC1` [Compound 4] came in with a clearance at 24 h in series [1] of 99.2 mL/min/kg.
